# In patent US20240108738A1, “BICYCLIC PEPTIDE LIGANDS SPECIFIC FOR NK CELLS” (Bicycle Tx Limited, priority 2021, published 2024):
# Numbered stars: 1 amine (or outer) side, 2 acyl side, 3 side chain; on linkers, the order of the positions; unused ones are H or OH. Bridge positions count the residues as written; N and C are the ends. Square brackets hold non-standard residues; d marks the D form. Peptide text beside a SMILES is read from it. TATA = O=C(CC[*:1])N1CN(C(=O)CC[*:2])CN(C(=O)CC[*:3])C1; Dopa = N[C@@H](Cc1ccc(O)c(O)c1)C(=O)O; Cba = N[C@@H](CC1CCC1)C(=O)O; Pen = CC(C)(S)[C@H](N)C(=O)O; Nva = CCC[C@H](N)C(=O)O
# Biological target: T1, Fc-tagged human NKp46 (Homo sapiens, UniProt O76036)
# T1 construct: purchased ACROBiosystems NC1-H5257
# T1 sequence (O76036 22-304): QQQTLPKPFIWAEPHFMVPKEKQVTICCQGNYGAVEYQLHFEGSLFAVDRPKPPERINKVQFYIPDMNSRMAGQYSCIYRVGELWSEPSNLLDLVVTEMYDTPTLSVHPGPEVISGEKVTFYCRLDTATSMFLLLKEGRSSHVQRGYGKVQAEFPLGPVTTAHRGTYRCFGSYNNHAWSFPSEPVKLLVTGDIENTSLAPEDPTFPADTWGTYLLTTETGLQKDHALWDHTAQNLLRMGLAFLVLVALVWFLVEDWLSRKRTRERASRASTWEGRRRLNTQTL
# Test: NKp46 SPR assay (Method 1 and/or Method 2)
# Assay type: binding
# Settings: SPR Method 1 and/or Method 2, Table 3B
# Experimental: SPR experiments were performed to determine ka (M^−1s^−1), kd (s^−1), KD (nM) values (where measurable) of various bicyclic peptides to immobilised NKp46.
# For analysis of peptide binding to NKp46, a Biacore 3000 instrument was used with a Cytiva Streptavidin chip. Capture of the protein (recombinant human NKp46-Fc fusion biotinylated via Avi-tag) was carried out at 25° C. with HBS-N (10 mM HEPES, 0.15 M NaCl, pH 7.4) as the running buffer and biotinylated NKp46 was captured to a level of 400-800 RU using a dilution of protein to 0.2 μM in buffer. Buffer was then changed to PBS/0.05% Tween 20 and a dilution series of the peptides was prepared in this buffer with a final DMSO concentration of 0.5% with a top peptide concentration of 100 nM-5000 nM and 6 further 2 or 3-fold dilutions. The SPR analysis was run at 25° C. and a flow rate of 50 μl/min with 60 seconds association and 200-400 seconds dissociation time. Data were corrected for DMSO excluded volume effects. All data were double-referenced for blank injections and reference surface using standard processing procedures and data processing and kinetic fitting were performed using Scrubber software, version 2.0c (BioLogic Software). Data were fitted using simple 1:1 binding model allowing for mass transport effects where appropriate.
# Peptides were tested against Fc-tagged human NKp46 (ACROBiosystems, cat no. NC1-H5257).
# For analysis of peptide binding, a Biacore 8k+ instrument was used with a CM5 chip (Cytiva). All experiments were carried out at 25° C. Anti-human IgG (Fc) antibody (Cytiva) was immobilized on all flow cells by standard amine coupling chemistry. The running buffer was HBS-N(Cytiva, 10 mM HEPES, 0.15 M NaCl, pH 7.4) and the flow rate was 10 μL/min. The carboxymethyl dextran surface was activated with a 1:1 ratio of 0.4 M 1-ethyl-3-(3-dimethylaminopropyl) carbodiimide hydrochloride (EDC)/0.1 M N-hydroxy succinimide (NHS) (Cytiva) for 420s. […] Residual activated groups were blocked with a 420 s injection of 1 M ethanolamine (pH 8.5). The final surface density was 3000-5000 RU. Fc-tagged human NKp46 was diluted to 0.1 μM in HBS-N and was captured on flow cell 2 only of the sensor chip at a flow rate of 10 μL/min to 500-1000 RU. The buffer was then changed to PBS-P+(Cytiva) supplemented with 2% DMSO. […] The flow rate was 50 μL/min with 60 s association and 400 s dissociation. Data were corrected for DMSO volume exclusion effects. All data were double-referenced against blank injections and reference surface response using standard processing procedures. Data processing and kinetic fitting was performed using Biacore Insight Evaluation Software with Extended Screening and Characterization Extension (Cytiva). Data were fitted using steady state affinity 1:1 binding model to determine KD. Data were fitted using kinetic 1:1 binding model to determine kinetic constants where appropriate.
row,Compound,Kd
1,"CC(C)C[C@@H]1NC(=O)[C@H](CC(N)=O)NC(=O)[C@@H](NC(=O)[C@H](C)N)CSCCC(=O)N2CN3CN(C2)C(=O)CCSC[C@H](NC(=O)[C@@H]2CCCN2C(=O)[C@H](C)NC(=O)[C@H](CCC(N)=O)NC1=O)C(=O)N[C@@H](CC(C)C)C(=O)N[C@@H](CC(C)C)C(=O)N[C@@H]([C@@H](C)O)C(=O)NCC(=O)N[C@@H](CCCCN)C(=O)N[C@@H](C(C)C)C(=O)N[C@H](C(=O)N[C@@H](C)C(N)=O)CSCCC3=O [BCY18313, A-(SEQ ID NO: 75)-A] (H-ACNLQAPCLLTGKVCA-NH2; linker 2-8-15 via TATA; N-terminus assumed)",2750 nM
2,"CSCC[C@@H]1NC(=O)[C@@H]2CSCCC(=O)N3CN(CN(C3)C(=O)CCSC[C@@H](C(=O)N[C@@H](C)C(N)=O)NC(=O)[C@H](C(C)C)NC(=O)[C@H](CCCCN)NC(=O)CNC(=O)[C@H]([C@@H](C)O)NC(=O)[C@H](C(C)C)NC1=O)C(=O)CCSC[C@H](NC(=O)[C@H](C)N)C(=O)N[C@@H](CC(N)=O)C(=O)N[C@@H](CC(C)C)C(=O)N[C@@H](CCC(N)=O)C(=O)N[C@@H](C)C(=O)N1CCC[C@H]1C(=O)N2 [BCY19702, A-(SEQ ID NO: 93)-A] (H-ACNLQAPCMVTGKVCA-NH2; linker 2-8-15 via TATA; N-terminus assumed)",2680 nM
3,"CSCC[C@@H]1NC(=O)[C@@H]2CSCCC(=O)N3CN(CN(C3)C(=O)CCSC[C@H](N)C(=O)N[C@@H](CC(N)=O)C(=O)N[C@@H](CC(C)C)C(=O)N[C@@H](CCC(N)=O)C(=O)N[C@@H](C)C(=O)N3CCC[C@H]3C(=O)N2)C(=O)CCSC[C@@H](C(=O)N[C@@H](C)C(N)=O)NC(=O)[C@H](C(C)C)NC(=O)[C@H](CCCCN)NC(=O)CNC(=O)[C@H]([C@@H](C)O)NC(=O)[C@H](CC(C)C)NC1=O [BCY19694, (SEQ ID NO: 4)-A] (H-CNLQAPCMLTGKVCA-NH2; linker 1-7-14 via TATA)",2510 nM
4,"CCC[C@@H]1NC(=O)[C@H](CCSC)NC(=O)[C@@H]2CSCCC(=O)N3CN(CN(C3)C(=O)CCSC[C@@H](C(=O)N[C@@H](C)C(N)=O)NC(=O)[C@H](C(C)C)NC(=O)[C@H](CCCCN)NC(=O)CNC(=O)[C@H]([C@@H](C)O)NC1=O)C(=O)CCSC[C@H](NC(=O)[C@H](C)N)C(=O)N[C@@H](CC(N)=O)C(=O)N[C@@H](CC(C)C)C(=O)N[C@@H](CCC(N)=O)C(=O)N[C@@H](C)C(=O)N1CCC[C@H]1C(=O)N2 [BCY19704, A-(SEQ ID NO: 95)-A] (H-ACNLQAPCM[Nva]TGKVCA-NH2; linker 2-8-15 via TATA; N-terminus assumed)",1620 nM
5,"CSCC[C@@H]1NC(=O)[C@@H]2CSCCC(=O)N3CN(CN(C3)C(=O)CCSC[C@H](NC(=O)[C@@H](N)CCCCN)C(=O)N[C@@H](CC(N)=O)C(=O)N[C@@H](CC(C)C)C(=O)N[C@@H](CCC(N)=O)C(=O)N[C@@H](C)C(=O)N3CCC[C@H]3C(=O)N2)C(=O)CCSC[C@@H](C(=O)N[C@@H](C)C(N)=O)NC(=O)[C@H](C(C)C)NC(=O)[C@H](CCCCN)NC(=O)CNC(=O)[C@H]([C@@H](C)O)NC(=O)[C@H](CC(C)C)NC1=O [BCY19695, K-(SEQ ID NO: 4)-A] (H-KCNLQAPCMLTGKVCA-NH2; linker 2-8-15 via TATA; N-terminus assumed)",2380 nM

# The next lines start with the values.
row,Kd,Compound
1,1920 nM,"CSCC[C@@H]1NC(=O)[C@@H]2CSCCC(=O)N3CN(CN(C3)C(=O)CCSC[C@@H](C(=O)N[C@@H](C)C(N)=O)NC(=O)[C@H](C(C)C)NC(=O)[C@H](CCCCN)NC(=O)CNC(=O)[C@H]([C@@H](C)O)NC(=O)[C@H](Cc3ccc(O)cc3)NC1=O)C(=O)CCSC[C@H](NC(=O)[C@H](C)N)C(=O)N[C@@H](CC(N)=O)C(=O)N[C@@H](CC(C)C)C(=O)N[C@@H](CCC(N)=O)C(=O)N[C@@H](C)C(=O)N1CCC[C@H]1C(=O)N2 [BCY18318, A-(SEQ ID NO: 80)-A] (H-ACNLQAPCMYTGKVCA-NH2; linker 2-8-15 via TATA)"
2,44 nM,"CC(=O)N[C@H]1CSCCC(=O)N2CN3CN(C2)C(=O)CCSC[C@H](NC(=O)[C@H](CC(C)C)NC(=O)[C@H](Cc2ccc(O)c(O)c2)NC(=O)[C@H](CC(=O)O)NC(=O)[C@@H]2CCCN2C(=O)[C@H](CC2CCC2)NC(=O)[C@H](Cc2ccc(O)cc2)NC1=O)C(=O)N[C@H](C)C(=O)N[C@@H](CC(=O)O)C(=O)N[C@@H](CCC(=O)O)C(=O)N[C@@H](Cc1ccc(O)cc1)C(=O)N[C@H](C(N)=O)CSCCC3=O [BCY19686, Ac-(SEQ ID NO: 150)] (Ac-CY[Cba]PD[Dopa]LC[dA]DEYC-NH2; linker 1-8-13 via TATA; C-terminus assumed)"
3,6410 nM,"CSCC[C@@H]1NC(=O)[C@@H]2CSCCC(=O)N3CN(CN(C3)C(=O)CCSC[C@H](N)C(=O)N[C@@H](CC(N)=O)C(=O)N[C@@H](CC(C)C)C(=O)N[C@@H](CCC(N)=O)C(=O)N[C@@H](C)C(=O)N3CCC[C@H]3C(=O)N2)C(=O)CCSC[C@@H](C(N)=O)NC(=O)[C@H](C(C)C)NC(=O)[C@H](CCCCN)NC(=O)CNC(=O)[C@H]([C@@H](C)O)NC(=O)[C@H](CC(C)C)NC1=O [BCY18295, (SEQ ID NO: 4)] (H-CNLQAPCMLTGKVC-NH2; linker 1-7-14 via TATA; C-terminus assumed)"
4,1530 nM,"CSCC[C@@H]1NC(=O)[C@@H]2CSCCC(=O)N3CN(CN(C3)C(=O)CCSC[C@@H](C(=O)N[C@@H](C)C(N)=O)NC(=O)[C@H](C(C)C)NC(=O)[C@H](C)NC(=O)CNC(=O)[C@H]([C@@H](C)O)NC(=O)[C@H](CC(C)C)NC1=O)C(=O)CCSC[C@H](NC(=O)[C@H](C)N)C(=O)N[C@@H](CC(N)=O)C(=O)N[C@@H](CC(C)C)C(=O)N[C@@H](CCC(N)=O)C(=O)N[C@@H](C)C(=O)N1CCC[C@H]1C(=O)N2 [BCY18304, A-(SEQ ID NO: 68)-A] (H-ACNLQAPCMLTGAVCA-NH2; linker 2-8-15 via TATA; N-terminus assumed)"
5,2270 nM,"CSCC[C@@H]1NC(=O)[C@H](CCCCN)NC(=O)[C@@H]2CCCN2C(=O)[C@H](Cc2c[nH]cn2)NC(=O)[C@H]([C@@H](C)O)NC(=O)[C@H](CC(N)=O)NC(=O)[C@@H]2CCCN2C(=O)[C@@H]2CSCCC(=O)N3CN(CN(C3)C(=O)CCSC[C@@H](C(=O)N[C@@H](C)C(N)=O)NC1=O)C(=O)CCSC[C@H](NC(=O)[C@H](C)N)C(=O)N[C@@H](CC(C)C)C(=O)N[C@@H](CC(C)C)C(=O)N[C@@H](Cc1c[nH]cn1)C(=O)N[C@@H](CC(=O)O)C(=O)N[C@@H](Cc1c[nH]cn1)C(=O)N2 [BCY14457, A-(SEQ ID NO: 103)-A] (H-ACLLHDHCPNTHPKMCA-NH2; linker 2-8-16 via TATA)"
6,16 nM,"CC(=O)N[C@@H]1C(=O)N[C@@H](Cc2ccc(O)cc2)C(=O)N[C@@H](CC2CCC2)C(=O)N2CCC[C@H]2C(=O)N[C@@H](CC(=O)O)C(=O)N[C@@H](Cc2ccc(O)cc2)C(=O)N[C@@H](CC(C)C)C(=O)N[C@H]2CSCCC(=O)N3CN(CN(C3)C(=O)CCSC1(C)C)C(=O)CCSC[C@@H](C(N)=O)NC(=O)[C@H](Cc1ccc(O)cc1)NC(=O)[C@H](CCC(=O)O)NC(=O)[C@H](CC(=O)O)NC(=O)[C@@H](C)NC2=O [BCY19689, Ac-(SEQ ID NO: 153)] (Ac-[Pen]Y[Cba]PDYLC[dA]DEYC-NH2; linker 1-8-13 via TATA; C-terminus assumed)"
